# Measurements reported in PubChem BioAssay (NCI).
#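 1) Cells in 96-well plates. 2) Compound, 48 h, 5 concentrations. 3) Linear interpolation between surrounding doses. 4) Unreached endpoint = highest concentration. TGI: concentration producing complete growth inhibition.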 Where a SMILES comes first, the peptide text is derived from it. The star is where a group is joined. OSu = O=C1CCC(=O)N1O*
# How the values were obtained:
# Test in all cases: growth of human tumour cells (NCI), 48 h
# UACC-62 melanoma = test system: UACC-62 melanoma
# HL-60(TB) leukemia = test system: HL-60(TB) leukemia
# SK-MEL-28 melanoma = test system: SK-MEL-28 melanoma
# NCI-H460 lung = test system: NCI-H460 lung
# A549 NSCLC = test system: A549 NSCLC
# OVCAR-8 ovarian = test system: OVCAR-8 ovarian
# HT29 colon = test system: HT29 colon
# SK-OV-3 ovarian = test system: SK-OV-3 ovarian
# BT-549 breast = test system: BT-549 breast
# PC-3 prostate = test system: PC-3 prostate
# OVCAR-3 ovarian = test system: OVCAR-3 ovarian
Structure (SMILES),TGI (UACC-62 melanoma),TGI (HL-60(TB) leukemia),TGI (SK-MEL-28 melanoma),TGI (NCI-H460 lung),TGI (A549 NSCLC),TGI (OVCAR-8 ovarian),TGI (HT29 colon),TGI (SK-OV-3 ovarian),TGI (BT-549 breast),TGI (PC-3 prostate),TGI (OVCAR-3 ovarian)
OC12CCC3(O)c4ccccc4C3C1c1ccccc12 (stereo unspecified),> 100 µM,> 100 µM,> 100 µM,> 100 µM,> 100 µM,> 100 µM,> 100 µM,> 100 µM,,,
CCC(=O)Nc1ccc(NCC(=O)Nc2ccc(OC)cc2)cc1,56.7 µM,> 100 µM,> 100 µM,,> 100 µM,42.8 µM,> 100 µM,95.3 µM,51.6 µM,89.9 µM,78.6 µM
NC(N)=N/N=C/c1c(-c2cc([N+](=O)[O-])c(Cl)cc2Cl)nc2n1CCS2,97.1 µM,41 µM,22.2 µM,> 100 µM,> 100 µM,> 100 µM,27.5 µM,,9.7 µM,> 100 µM,> 100 µM
CC(=O)n1nc(-c2ccc3ccccc3c2)nc1C,> 100 µM,> 100 µM,,> 100 µM,> 100 µM,> 100 µM,> 100 µM,> 100 µM,> 100 µM,> 100 µM,> 100 µM
N#Cc1c(-c2ccccc2)cc(Nc2ccc(Cl)cc2)n2c1nc1ccccc12,> 100 µM,,> 100 µM,> 37.6 µM,> 40.1 µM,> 57 µM,11.4 µM,> 30.4 µM,> 100 µM,> 48 µM,11 µM
COc1cc(OC)c(OC)cc1/C=C/c1cc[n+](C)c2ccccc12,,33 µM,> 100 µM,> 100 µM,> 100 µM,> 100 µM,> 100 µM,> 100 µM,,75.1 µM,
C=CCn1c(-c2ccc(Cl)cc2)csc1=Nc1ccccc1OC,> 94 µM,86.3 µM,> 100 µM,> 100 µM,> 100 µM,> 100 µM,,> 100 µM,> 100 µM,> 100 µM,> 100 µM
Cc1nc(Nc2ccc(Cl)c(Cl)c2)sc1C(=O)/C=C/c1ccc2c(c1)OCO2,> 100 µM,43.4 µM,86.9 µM,> 100 µM,48.5 µM,49.6 µM,> 100 µM,33.6 µM,46.1 µM,,30 µM
C/C(O[Si](C(C)C)(C(C)C)C(C)C)=C(\C)C(=O)N(C)c1ccccc1Cl,,,> 100 µM,> 100 µM,> 100 µM,> 100 µM,> 100 µM,,> 100 µM,,> 100 µM
C=CCCC(=O)C(=[N+]=[N-])C(=O)CCC(=O)c1ccccc1,> 10 µM,,> 10 µM,> 10 µM,> 10 µM,> 10 µM,> 10 µM,> 10 µM,> 10 µM,> 10 µM,> 10 µM
COc1ccc(/C(Cl)=C(\C=O)c2ccc(Cl)cc2)cc1OC,39.9 µM,7.74 µM,,> 100 µM,> 100 µM,28.6 µM,20.8 µM,> 100 µM,,,31.7 µM
CCOc1cc(-c2nc3cc(F)ccc3s2)ccc1O,31.6 µM,,43.1 µM,34.9 µM,37 µM,31.2 µM,34.8 µM,33 µM,30.2 µM,28.7 µM,35 µM
CCN(CC)CCN1C(=O)C(=O)N(c2cccc3ccccc23)C1=O,> 10 µM,> 10 µM,> 10 µM,> 10 µM,> 10 µM,> 10 µM,> 10 µM,> 10 µM,,> 10 µM,> 10 µM
CC(=O)O[C@H]1C(=O)[C@@]2(C)[C@H]([C@H](OC(=O)c3ccccc3)[C@]3(O)C[C@H](OC(=O)[C@H](O)[C@@H](NC(=O)c4ccc(N(C)C)cc4)c4ccccc4)C(C)=C1C3(C)C)[C@]1(OC(C)=O)CO[C@@H]1C[C@@H]2O,> 50 µM,0.00566 µM,> 50 µM,,> 50 µM,> 50 µM,,> 50 µM,> 50 µM,> 50 µM,0.0063 µM
O=[N+]([O-])C(C(Cl)=C(Cl)Cl)=C(n1cncn1)n1cncn1,> 100 µM,,> 95.9 µM,> 100 µM,> 100 µM,44.2 µM,39.4 µM,> 100 µM,36 µM,> 100 µM,38.4 µM
Cc1ccc(S(=O)(=O)NC(=O)NC(CCC(N)=O)C(=O)O)cc1 (stereo unspecified),> 100 µM,> 100 µM,> 100 µM,> 100 µM,> 100 µM,> 100 µM,> 100 µM,> 100 µM,> 100 µM,> 100 µM,
O=C1NC(=Nc2ccccc2)C(=Nc2ccccc2)N1c1ccccc1,25.3 µM,52.8 µM,28.4 µM,30.8 µM,31 µM,29.4 µM,29.6 µM,34.4 µM,,27.6 µM,
NCCCCC(NC(=O)C(N)Cc1ccc(O)cc1)C(=O)NC(Cc1ccc(O)cc1)C(=O)NC(CCCCN)C(=O)ON1C(=O)CCC1=O (stereo unspecified) (H-YKYK-OSu; configuration not given here),> 100 µM,> 100 µM,> 100 µM,> 100 µM,> 100 µM,> 100 µM,> 100 µM,,> 100 µM,> 100 µM,
COC(=O)C1(O)C(c2ccccc2)NC2(C)CCCC21 (stereo unspecified),> 100 µM,> 100 µM,> 100 µM,,> 100 µM,> 100 µM,,> 100 µM,> 100 µM,> 100 µM,
O=c1[nH]nc(-c2ccc(F)cc2)cc1-c1ccccc1,> 100 µM,> 100 µM,> 100 µM,> 100 µM,> 100 µM,> 100 µM,> 100 µM,> 100 µM,,> 100 µM,> 100 µM
COc1ccc2c(c1OC)C(=O)O[C@@H]2[C@H]1c2c(cc3c(c2OC)OCO3)CCN1C,> 100 µM,,> 100 µM,> 100 µM,> 100 µM,> 100 µM,> 100 µM,> 100 µM,> 100 µM,> 100 µM,49.9 µM
